Measured values from patent US20240208961A1, “EIF4E INHIBITORS AND USES THEREOF” (PIC Therapeutics, Inc., priority 2022, published 2024).

Experiments:
[1] = test system: ZR-75-1; assay: Cell viability assay, adherent cell line, 5 day Alamar Blue (Example 8): ZR-75-1; type: cell-based; conditions: Homo sapiens, 120 h, ZR-75-1, Breast Cancer Cell Viability
Experimental: (§1) Cell viability assays were performed on certain compounds of the disclosure, according to the following procedure.
(§2) Cell line specific media conditions used:
(§3) The procedure for adherent cell line compound screening was as follows:
(§4) • Cells were seeded in 96-well cell culture treated tissue culture plates: ZR-75-1, NIHOVCAR3, T47D, and LOVO cells 4000 cells/well; and HPAFII 3000 cell/well
(§5) Day 3: Compound Dilution and Dosing
(§6) • 5-fold serial dilution (8 point) of each compound in DMSO 0-25 mM in compound storage plates was prepared (stored at −80° C. if not to be used immediately). • Cells were rinsed with 1% FBS Media (appropriate to cell line as described above) and replaced with 87.5 μL media prior to dosing. HPAFII was screened in normal 10% FBS Media. • DMSO compound dilution series was diluted in 1% FBS media (appropriate to cell line as described above)—2 μL in 248 μL to give an 8× final concentration. • Cells were dosed 12.5 μL/well in triplicate to give final dose curved on cells 0-25 μM. • Media blank 100 μL/well×8 was set up. • All plates were incubated at 37° C.
(§7) Day 8: 5 Day Viability Assay
(§8) • Alamar Blue viability reagent was added (10 μL per well) and incubated for 3 hours at 37° C. prior to fluorescence detection (Ex560 nm/Em590 nm) on a Varioskan Lux multimode plate reader.
(§9) Results from cell viability assays are summarized in Table 23, wherein A represents IC50≤1 μM; B represents 1 μM<IC50≤8 μM; and C represents IC50>8 μM. Blank cells indicate that the compound was not tested in a particular assay.

[2] = test system: ZR-75-1; assay: ZR-75-1 compound screening cell viability, Alamar Blue (Example 6); type: cell-based; conditions: Homo sapiens, 96 h, ZR-75-1 cells, Media 1% FBS, read-out: ZR-75-1 Cell Viability, 4 Days: IC50
[3] = test system: MM.1R; assay: Cell viability assay, suspension cell line, 5 day Alamar Blue (Example 8): MM.1R; type: cell-based; conditions: 120 h, Multiple Myeloma (Steroid Resistant) Cancer Cell
Experimental: as §1, §2
(§10) The procedure for suspension cell line compound screening was as follows:
(§11) Day 1: Cell Seeding and Compound Dosing
as §6, with “• Cells were seeded 2×10^5 in 96-well cell culture treated tissue culture plates: 87.5 μL/well; MM.1 S, MM,1R, NCIH510A. • 5-fold” for “• 5-fold”, “to dosing. • DMSO” for “to dosing. HPAFII was screened in normal 10% FBS Media. • DMSO”
(§12) Day 6: 5 Day Viability Assay
as §8, §9

[4] = test system: HPAFII; assay: Cell viability assay, adherent cell line, 5 day Alamar Blue (Example 8): HPAFII; type: cell-based; conditions: Homo sapiens, HPAF-II, 120 h, Pancreatic Cancer Cell
Experimental: as §1, §2, §3, §4, §5, §6, §7, §8, §9

[5] = target: T1, Human eIF4E (aa 28-217) (Homo sapiens, UniProt P06730); assay: 4G-eIF4E protein-based assay (TR-FRET, biotin labeled 4G2 peptide); type: binding
T1 construct: Human eIF4E (aa 28-217) with a C-terminal His-tag; made in house
T1 sequence (P06730 28-217): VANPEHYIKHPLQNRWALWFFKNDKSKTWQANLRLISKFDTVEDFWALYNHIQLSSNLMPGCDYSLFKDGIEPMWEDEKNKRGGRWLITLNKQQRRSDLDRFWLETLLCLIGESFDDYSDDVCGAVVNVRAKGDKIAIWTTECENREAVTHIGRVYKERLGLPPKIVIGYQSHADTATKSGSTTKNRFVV
Experimental: Human eIF4E ([…]) with a C-terminal His-tag was expressed in E. coli in inclusion bodies. The protein was solubilized with 8 M urea and purified under denaturing conditions using nickel-charged HisTrap HP columns (GE Healthcare). The purified protein was then refolded by diluting in 20 mM Hepes pH 7.0, 0.5 M NaCl, 1 mM DTT, […], 0.5 M arginine plus 6 M urea, and then dialyzing overnight into the same buffer without the urea. The protein was further dialyzed into 20 mM Hepes, pH 6.5, 50 mM NaCl, 1 mM EDTA, 1 mM DTT, and concentrated using Hitrap SP sepharose FF columns (GE Healthcare). The concentrated protein was dialyzed into 20 mM Hepes, pH 7.0, 0.5M NaCl, 5 mM DTT and […], and stored at -80° C. until use. Test compounds (3.43 mM stock in DMSO) were diluted 2-fold in series in DMSO (10 concentration points). Compound solutions (1.2 μL/well) were added into black 384-well polypropylene microplates (Matrix, Thermal Scientific). […] The samples were incubated at room temperature (20-23° C.) for 4 hours. Biotin labeled 4G2 peptide ([…])-NH2, 1.75 μM stock in DMSO) was diluted to 0.13 μM in Assay Buffer (without DTT) and 5 μL/well was added. The samples were incubated at room temperature for 20 min. Five microliters per well of 15 nM Eu-streptavidin (Eu-SA, Perkin Elmer) and 96 nM Allophycocyanin (APC)-anti His antibody (Columbia Biosciences) in Assay Buffer (without DTT) were then added and the samples were incubated at room temperature for 20 min. Assay signals were monitored by reading excitation at 340 nm and emission fluorescence at 615 nm and 665 nm on an Envision reader (Perkin Elmer). Normalized TR-FRET (time-resolved fluorescence resonance energy transfer) assay signal (Rn) was calculated by the formula: […] C=(Ac-Ba)/(Dc-Bd) • Where Ac is the fluorescence intensity of 1.5 nM Eu-SA in the assay buffer at 665 nm. IC50 values were calculated using xLFit program (IDBS).

[6] = test system: T47D; assay: Cell viability assay, adherent cell line, 5 day Alamar Blue (Example 8): T47D; type: cell-based; conditions: Homo sapiens, 120 h, Breast Cancer Cell Viability
Experimental: as §1, §2, §3, §4, §5, §6, §7, §8, §9

[7] = test system: NCIH510A; assay: Cell viability assay, suspension cell line, 5 day Alamar Blue (Example 8): NCIH510A; type: cell-based; conditions: Homo sapiens, NCI-H510A, 120 h, Small Cell Lung Cancer Cell Line
Experimental: as §1, §2, §10, §11
as §6, with “• Cells were seeded 2×10^5 in 96-well cell culture treated tissue culture plates: 87.5 μL/well; MM.1 S, MM,1R, NCIH510A. • 5-fold” for “• 5-fold”, “to dosing. • DMSO” for “to dosing. HPAFII was screened in normal 10% FBS Media. • DMSO”
as §12, §8, §9

[8] = test system: NIHOVCAR3; assay: Cell viability assay, adherent cell line, 5 day Alamar Blue (Example 8): NIHOVCAR3; type: cell-based; conditions: Homo sapiens, OVCAR-3, 120 h, OVCAR3, Ovarian Cancer Cell
Experimental: as §1, §2, §3, §4, §5, §6, §7, §8, §9

[9] = test system: MM.1S; assay: Cell viability assay, suspension cell line, 5 day Alamar Blue (Example 8): MM.1S; type: cell-based; conditions: Homo sapiens, MM1.S, 120 h, Multiple Myeloma (Steroid Sensitive) Cancer Cell
Experimental: as §1, §2, §10, §11
as §6, with “• Cells were seeded 2×10^5 in 96-well cell culture treated tissue culture plates: 87.5 μL/well; MM.1 S, MM,1R, NCIH510A. • 5-fold” for “• 5-fold”, “to dosing. • DMSO” for “to dosing. HPAFII was screened in normal 10% FBS Media. • DMSO”
as §12, §8, §9

[10] = test system: LoVo; assay: Cell viability assay, adherent cell line, 5 day Alamar Blue (Example 8): LoVo; type: cell-based; conditions: Homo sapiens, 120 h, Colorectal Cancer Cell Viability
Experimental: as §1, §2, §3, §4, §5, §6, §7, §8, §9

[11] = test system: MM.1R cells; assay: 5 day viability assay in MM.1R cells, I-11 and dexamethasone (Example 7); type: cell-based; conditions: 120 h; MM.1R cells (steroid resistant), 5 days, Alamar Blue; read-out: IC50 (μM), Viability Assessment (5 Days) in MM.1R Cells
Experimental: (§13) Compound I-11 was studied in the context of dexamethasone combinations, which is used clinically in early Multiple Myeloma prior to the emergence of steroid resistance and is a common backbone therapy. The MM.1S cell line is a steroid sensitive line, and the MM.1R line is the corresponding cell line which has been driven to steroid resistance. The procedure for these studies was as follows:
as §11
(§14) • Cells were seeded 2×10^5 in 96-well cell culture treated tissue culture plates: 87.5 μL/well; MM.1 S and MM.1R • A 5-fold serial dilution of each compound in DMSO (0-25 mM) was prepared in compound storage plates (stored at −80° C. if not to be used immediately). An 8-point curve was used for compound I-11, and a 6-point curve was used for dexamethasone (0-25 mM). • Cells were rinsed with 1% FBS Media and replaced with 87.5 μL media prior to dosing. • DMSO compound dilution series was diluted in 1% FBS media—2 μL compound in 123 μL media to give a 16× final concentration. Dosing across the plate columns 1-12 (compound I-11 0-400 μM), 6.25 μL 16× in media/well. Dosing down plate rows (columns 1-6 dexamethasone 0-400 μM), 6.25 μL 16× compound in media per well. • Cells were dosed with 12.5 μL for both compounds, with 2 replicates of dosing matrix per 96-well plate. Final volume cells and compound was 100 μL/well. • Media blank 100 μL/well×8 was set up. • All plates were incubated at 37° C.
as §12, §8

[12] = test system: MM.1S cells; assay: 5 day viability assay in MM.1S cells, I-11 and dexamethasone (Example 7); type: cell-based; conditions: Homo sapiens, MM1.S, 120 h; MM.1S cells (steroid sensitive), 5 days, Alamar Blue; read-out: IC50 (μM), Viability Assessment (5 Days) in MM.1S Cells
Experimental: as §13, §11, §14, §12, §8

CC(C)c1cnc(Nc2ncc(-c3cccs3)cc2C(=O)O)s1 [Compound I-16]
IC50 [1]: > 8000 nM | IC50 [2]: > 8000 nM

Cc1nc(Nc2ncc(-c3cccs3)cc2C(=O)O)sc1CC(C)C [Compound I-17]
IC50 [1]: > 8000 nM | IC50 [2]: > 8000 nM

CC(C)Cc1cnc(Nc2ncc(-c3cccs3)cc2C(=O)O)s1 [Compound I-18]
IC50 [1]: 1000 to 8000 nM | IC50 [2]: 1000 to 8000 nM

CC(C)Cc1sc(Nc2ncc(-c3cccs3)cc2C(=O)O)nc1C(F)(F)F [Compound I-22]
IC50 [1]: 1000 to 8000 nM | IC50 [2]: 1000 to 8000 nM

Cc1ccc(-c2cnc(Nc3nc(C(C)(C)C)c(CC(C)C)s3)c(C(=O)O)c2)s1 [Compound I-24]
IC50 [3]: > 8000 nM | IC50 [4]: > 8000 nM | IC50 [1]: 1000 to 8000 nM | IC50 [5]: ≤ 500 nM | IC50 [6]: 1000 to 8000 nM | IC50 [7]: 1000 to 8000 nM | IC50 [8]: 1000 to 8000 nM | IC50 [9]: > 8000 nM | IC50 [10]: 1000 to 8000 nM

CC(C)c1sc(Nc2ncc(-c3cccs3)cc2C(=O)O)nc1C(C)(C)C [Compound I-25]
IC50 [1]: 1000 to 8000 nM

CC(C)Cc1sc(Nc2ncc(-c3cccs3)cc2C(=O)O)nc1C(C)C [Compound I-26]
IC50 [1]: ≤ 1000 nM

CC(C)Cc1sc(Nc2ncc(-c3cccs3)cc2C(=O)O)nc1C1CCC1 [Compound I-28]
IC50 [3]: ≤ 1000 nM | IC50 [4]: ≤ 1000 nM | IC50 [1]: ≤ 1000 nM | IC50 [5]: 500 to 1000 nM | IC50 [6]: ≤ 1000 nM | IC50 [7]: ≤ 1000 nM | IC50 [8]: ≤ 1000 nM | IC50 [9]: ≤ 1000 nM | IC50 [10]: ≤ 1000 nM

Cc1ccc(-c2cnc(Nc3nc(C4CCC(F)(F)CC4)c(CC(C)C)s3)c(C(=O)O)c2)s1 [Compound I-30]
IC50 [3]: 1000 to 8000 nM | IC50 [4]: > 8000 nM | IC50 [1]: 1000 to 8000 nM | IC50 [5]: 500 to 1000 nM | IC50 [6]: 1000 to 8000 nM | IC50 [7]: 1000 to 8000 nM | IC50 [8]: 1000 to 8000 nM | IC50 [9]: 1000 to 8000 nM | IC50 [10]: 1000 to 8000 nM

CC(C)c1sc(Nc2ncc(-c3cccs3)cc2C(=O)O)nc1C1CCC(F)(F)CC1 [Compound I-31]
IC50 [1]: 1000 to 8000 nM

C[C@@H]1C[C@H]2[C@@H]3CCC4=CC(=O)C=C[C@]4(C)[C@@]3(F)[C@@H](O)C[C@]2(C)[C@@]1(O)C(=O)CO [dexamethasone, reference compound]
IC50 [11]: 30.9 µM | IC50 [12]: 0.0133 µM
